Source: ChEMBL document CHEMBL5505981, “Design, synthesis and biological evaluation of novel 1,2,4a,5-tetrahydro-4H-benzo[b][1,4]oxazino[4,3-d][1,4]oxazine-based AAK1 inhibitors with anti-viral property against SARS-CoV-2” (Eur J Med Chem, 2024)
The source made the active and inactive calls. The calls are words filed in the database; no cut-off is given here.

Legend:
SARS-CoV-2 [1] = assay type: functional, organism-based; conditions: Severe acute respiratory syndrome coronavirus 2; HEK293; dose 3.0 µM, time 25.0 hrs
SARS-CoV-2 [2] = assay type: functional, organism-based; conditions: Severe acute respiratory syndrome coronavirus 2; HEK293; dose 3.0 µM, time 4.0 hrs
HEK293 [3] = assay type: cell-based; conditions: Homo sapiens, dose 1-3 µM, time 4.0 hrs
SARS-CoV-2 [4] = test: microbe, parasite or virus in culture; conditions: Severe acute respiratory syndrome coronavirus 2, HEK293
SARS-CoV-2 [5] = assay type: functional, organism-based; conditions: Severe acute respiratory syndrome coronavirus 2; HEK293; dose 10.0 µM, time 6.0 hrs
SARS-CoV-2 [6] = assay type: functional, organism-based; conditions: Severe acute respiratory syndrome coronavirus 2; HEK293; dose 10.0 µM, time 6.0 hrs; remark: listed apart in the source
HEK293 [7] = assay type: cell-based; conditions: Homo sapiens, dose 5-10 µM, time 4.0 hrs
SARS-CoV-2 [8] = assay type: functional, organism-based; conditions: Severe acute respiratory syndrome coronavirus 2; HEK293; dose 5.0 µM, time 6.0 hrs
SARS-CoV-2 [9] = assay type: functional, organism-based; conditions: Severe acute respiratory syndrome coronavirus 2; HEK293; dose 5.0 µM, time 6.0 hrs; remark: listed apart in the source

SMILES | inhibition (SARS-CoV-2 [1]) | Activity (SARS-CoV-2 [2]) | inhibition (HEK293 [3]) | IC50 (SARS-CoV-2 [4]) | Activity (SARS-CoV-2 [5]) | Activity (SARS-CoV-2 [6]) | inhibition (HEK293 [7]) | Activity (SARS-CoV-2 [8]) | Activity (SARS-CoV-2 [9])
C(#Cc1c[nH]c2ncc(-c3ccc4c(c3)OCC3COCCN43)cc12)c1cccnc1 (configuration not stated) | Active | Active | Active | ~2.9 µM |  |  |  |  | 
COc1ccc(-c2cnc3[nH]cc(C#Cc4cccnc4)c3c2)cc1OC | Active | Active | Active | ~3.11 µM |  |  |  |  | 
CCN(CC)S(=O)(=O)Nc1cccc(-c2ccc3c(NC(=O)C4CC4)n[nH]c3c2)c1 |  | Active |  |  | Active | Active | Active |  | 
CC(C)C[C@](C)(N)COc1ccc(-c2ccnc(C(F)F)c2)nc1C(F)F [PILAVAPADIN] |  | Active |  | ~4.18 µM |  |  |  | Active | Active
CCN(CC)CCNC(=O)c1c(C)[nH]c(/C=C2\C(=O)Nc3ccc(F)cc32)c1C [SUNITINIB] |  |  |  | ~1.96 µM |  |  |  |  | 
